{"source": "paper PMC9916685", "about": "“Discovery of Small Molecule COX-1 and Akt Inhibitors as Anti-NSCLC Agents Endowed with Anti-Inflammatory Action” (International Journal of Molecular Sciences, 2023)", "key": {"COX-1": {"system": "COX-1", "conditions": "cited from earlier work"}, "Akt": {"system": "Akt", "experiment": "Akt Colorimetric In-Cell ELISA in A549 cells", "format": "cell-based, human", "conditions": "24 h, mean ± SD, read-out: Akt inhibition IC50 in A549 cells", "description": "The assay was performed in triplicate. IC50 data (µM) were expressed as mean ± SD."}, "A549 cells": {"system": "A549 cells", "experiment": "Annexin V-FITC/PI flow cytometry-based apoptosis detection", "conditions": "A549, 24 h; for percentage of A549 cells undergoing apoptosis (early and late): sum of early and late"}, "[1]": {"system": "A549 human lung adenocarcinoma cells", "experiment": "MTT cytotoxicity assay, A549 cells", "format": "cell-based", "conditions": "mean ± SD", "description": "A549 human lung adenocarcinoma and L929 mouse fibroblast cell lines were obtained from American Type Culture Collection (ATCC) (Manassas, VA, USA). Both cell lines were cultured, and drug treatments were carried out as previously reported.\nMTT assay was conducted as previously explained in the literature with small modifications. Cisplatin was used as a positive control. The assay was performed in triplicate. IC50 data (µM) were expressed as mean ± SD."}, "myeloperoxidase (MPO)": {"system": "myeloperoxidase (MPO)", "experiment": "LPS-induced sepsis model, serum MPO levels", "format": "in vivo, Sprague Dawley rats", "conditions": "rat serum, 24 h after LPS 1 mg/kg i.p.; 3b, 4a 10 mg/kg/day, indomethacin 5 mg/kg by gastric intubation for six days; mean ± SD, n = 8", "description": "(§1) Male albino Sprague Dawley rats (~250–300 g) were procured from the Medical and Surgical Experimental Animals Application and Research Center of Eskisehir Osmangazi University (ESOGU). In the animal house, the rats were housed in stainless steel cages under standard atmospheric conditions at 22 ± 1 °C and exposed to 12 h/12 h light/dark cycle. Food and water were given ad libitum. All experiments and protocols reported in this work were approved by ESOGU Animal Experiments Local Ethics Committee (10 December 2018/700).\n(§2) Compounds 3b, 4a, and indomethacin (Sigma-Aldrich, St. Louis, MO, USA) were dissolved in 5% dimethyl sulfoxide (DMSO) and then diluted. The final DMSO concentration in the solution was 0.5% (v/v). The agents were administered by gastric intubation.\n(§3) Rats were randomly divided into five groups (n = 8) as control group, LPS group, test groups (3b and 4a), and reference group. 0.5% DMSO was used as control solution for LPS group. Indomethacin (5 mg/kg) was used as a reference agent. Control group (Group I) was fed with basal rat chow throughout the experimental period. LPS group (Group II) was fed with basal rat chow for six days (only 0.5% DMSO was administered by gastric intubation) and LPS was injected intraperitoneally in 0.9% sodium chloride solution only once on the 7th day. Groups III, IV, and V were fed with basal rat chow and compound 3b (10 mg/kg/day), compound 4a (10 mg/kg/day), and indomethacin were administered, respectively, by gastric intubation for six days. Then, LPS was injected intraperitoneally in 0.9% sodium chloride solution only once on the 7th day for three groups as well. After 24 h of LPS injection, all rats were sacrificed by ketamine (80 mg/kg) ve xylazine (10 mg/kg) anesthesia via intraperitoneal route. Blood samples were collected via cardiac puncture in tubes containing gel for obtaining serum.\nSuzuki’s assay was performed with slight modifications. The rate of MPO-catalyzed oxidation of 3,3′,5,5′-tetramethylbenzidine (TMB) was followed by recording the absorbance increase at 655 nm for 5 min. Taking into account the linear phase of the reaction, the absorbance change was measured per minute. The enzyme activity was expressed as the amount of the enzyme producing one absorbance change per minute under assay conditions."}, "[2]": {"experiment": "LPS-induced sepsis model, serum ALT and AST levels", "format": "in vivo, Sprague Dawley rats", "conditions": "rat serum, 24 h after LPS; 3b, 4a 10 mg/kg/day, indomethacin 5 mg/kg by gastric intubation six days; mean ± SD, n = 8", "description": "as §1, §2, §3\nSerum ALT and AST levels were determined using enzyme-based Roche Diagnostics kit in Roche Modular Systems analyzer by photometric assay based on the manufacturer’s instructions. The other serum samples were stored at −80 °C (Thermo Electron, Waltham, MA, USA) for subsequent analyses of MPO and NO levels."}, "nitric oxide (NO)": {"system": "nitric oxide (NO)", "experiment": "LPS-induced sepsis model, serum NO levels", "format": "in vivo, Sprague Dawley rats", "conditions": "rat serum, 24 h after LPS; 3b, 4a 10 mg/kg/day, indomethacin 5 mg/kg by gastric intubation six days; n = 8", "description": "as §1, §2, §3\nNitrate and nitrite, which represent the best index of the entire NO production, are the stable end products of NO in vivo. Nitrate in serum was assayed by a slight modification of the Cd-reduction method as reported by Cortas and Wakid."}}, "data": [{"compound": "COc1ccc2[nH]cc(C=CC(=O)c3ccc(S(C)(=O)=O)cc3)c2c1", "note": "[3-(5-methoxy-1H-indol-3-yl)-1-(4-(methylsulfonyl)phenyl)prop-2-en-1-one]", "values": [{"measurement": "COX-1 IC50", "setting": "COX-1", "value": 8.60, "unit": "µg/mL"}]}, {"compound": "N#Cc1ccc(Oc2ccc(C=NNC(=S)Nc3ccc(S(=O)(=O)N4CCCCC4)cc3)cc2)cc1", "note": "[4-[4-(piperidin-1-ylsulfonyl)phenyl]-1-[4-(4-cyanophenoxy)benzylidene]thiosemicarbazide]", "values": [{"measurement": "IC50", "setting": "COX-1", "value": 1890, "unit": "nM"}]}, {"compound": "N.N.[Cl][Pt][Cl]", "note": "[Cisplatin, reference compound]", "values": [{"measurement": "IC50", "setting": "Akt", "value": "9.3 ± 2.55", "unit": "µM"}, {"measurement": "Early Apoptosis (%)", "setting": "A549 cells; compound at IC50", "value": 2.43, "unit": "%"}, {"measurement": "Late Apoptosis (%)", "setting": "A549 cells; compound at IC50", "value": 2.03, "unit": "%"}, {"measurement": "Necrosis (%)", "setting": "A549 cells; compound at IC50", "value": 2.34, "unit": "%"}, {"measurement": "Early Apoptosis (%)", "setting": "A549 cells; compound at IC50/2", "value": 3.69, "unit": "%"}, {"measurement": "Late Apoptosis (%)", "setting": "A549 cells; compound at IC50/2", "value": 2.88, "unit": "%"}, {"measurement": "Necrosis (%)", "setting": "A549 cells; compound at IC50/2", "value": 0.72, "unit": "%"}, {"measurement": "percentage of A549 cells undergoing apoptosis (early and late)", "setting": "A549 cells; compound at IC50/2", "value": 6.57, "unit": "%"}, {"measurement": "percentage of A549 cells undergoing apoptosis (early and late)", "setting": "A549 cells; compound at IC50", "value": 4.46, "unit": "%"}, {"measurement": "IC50", "setting": "[1]", "value": "22.7 ± 4.04", "unit": "µM"}]}, {"compound": "COc1ccc2c(c1)c(CC(=O)O)c(C)n2C(=O)c1ccc(Cl)cc1", "note": "[Indomethacin, reference compound]", "values": [{"measurement": "MPO (U/L)", "setting": "myeloperoxidase (MPO)", "value": "1.06 ± 0.73", "unit": "U/L"}, {"measurement": "ALT (U/L)", "setting": "[2]", "value": "44.00 ± 14.64", "unit": "U/L"}, {"measurement": "AST (U/L)", "setting": "[2]", "value": "123.50 ± 32.14", "unit": "U/L"}, {"measurement": "NO level, 25% Percentile", "setting": "nitric oxide (NO)", "value": 0.667, "unit": "µmol/L"}, {"measurement": "NO level, 75% Percentile", "setting": "nitric oxide (NO)", "value": 3.123, "unit": "µmol/L"}, {"measurement": "NO level, Median", "setting": "nitric oxide (NO)", "value": 1.281, "unit": "µmol/L"}]}]}
